Reference: ChEMBL document CHEMBL4304783, “Discovery of a Novel Selective Dual Peroxisome Proliferator-Activated Receptor α/δ Agonist for the Treatment of Primary Biliary Cirrhosis” (ACS Med Chem Lett, 2019)
Calls of active or inactive are those of the source. The calls are words filed in the database; no cut-off is given here.

Legend:
[1] = biological target: T1, Peroxisome proliferator-activated receptor delta (Homo sapiens, UniProt Q03181); assay: Agonist activity at PPARbeta (unknown origin) incubated for 3 to 16 hrs by pathhunter nuclear hormone receptor assay
T1 sequence (Q03181 whole entry): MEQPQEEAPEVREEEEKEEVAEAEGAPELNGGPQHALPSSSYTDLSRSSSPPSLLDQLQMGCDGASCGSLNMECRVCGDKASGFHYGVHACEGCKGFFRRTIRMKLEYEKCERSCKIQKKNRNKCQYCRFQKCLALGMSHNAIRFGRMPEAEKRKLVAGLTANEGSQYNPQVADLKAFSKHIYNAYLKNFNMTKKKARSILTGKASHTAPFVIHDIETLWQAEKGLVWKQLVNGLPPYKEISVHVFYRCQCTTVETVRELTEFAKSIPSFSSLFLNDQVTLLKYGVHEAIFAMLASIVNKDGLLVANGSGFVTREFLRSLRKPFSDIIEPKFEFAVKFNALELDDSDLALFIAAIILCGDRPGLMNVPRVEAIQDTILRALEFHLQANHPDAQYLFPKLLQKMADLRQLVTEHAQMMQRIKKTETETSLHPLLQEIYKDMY

[2] = biological target: T2, Peroxisome proliferator-activated receptor alpha (Homo sapiens) (UniProt Q07869); assay: Agonist activity at PPARalpha (unknown origin) incubated for 3 to 16 hrs by pathhunter nuclear hormone receptor assay relative to GW7647; set-up: concentration or dose not given beside the values
T2 sequence (whole entry): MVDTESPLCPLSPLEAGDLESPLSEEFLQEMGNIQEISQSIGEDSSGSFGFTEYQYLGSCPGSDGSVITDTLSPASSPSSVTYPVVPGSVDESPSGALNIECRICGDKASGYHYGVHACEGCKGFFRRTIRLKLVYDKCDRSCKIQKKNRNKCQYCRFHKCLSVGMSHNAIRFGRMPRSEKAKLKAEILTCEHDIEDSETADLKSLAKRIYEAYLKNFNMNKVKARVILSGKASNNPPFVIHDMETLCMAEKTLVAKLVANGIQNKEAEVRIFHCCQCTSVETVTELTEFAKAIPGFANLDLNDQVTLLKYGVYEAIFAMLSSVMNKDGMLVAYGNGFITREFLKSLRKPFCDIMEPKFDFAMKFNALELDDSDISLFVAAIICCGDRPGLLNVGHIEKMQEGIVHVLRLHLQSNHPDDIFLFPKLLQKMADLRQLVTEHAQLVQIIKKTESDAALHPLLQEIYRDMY

[3] = biological target: T3, Peroxisome proliferator-activated receptor alpha (Homo sapiens, UniProt Q07869); assay: Agonist activity at PPARalpha (unknown origin) incubated for 3 to 16 hrs by pathhunter nuclear hormone receptor assay
T3 sequence (Q07869 whole entry): T2 sequence (whole entry)

Rattus norvegicus [4] = assay: Hepatoprotective activity in Sprague-Dawley rat assessed as reduction in ANIT-stimulated fibrosis area at 20 mg/kg, ig administered for 8 days by hematoxylin and eosin staining based mopho-metric analysis; assay type: functional, organism-based
Rattus norvegicus [5] = assay: Hepatoprotective activity in Sprague-Dawley rat assessed as reduction in ANIT-stimulated total bilirubin level at 20 mg/kg, ig administered for 8 days by biochemical analysis; assay type: functional, organism-based
Rattus norvegicus [6] = assay: Hepatoprotective activity in Sprague-Dawley rat assessed as reduction in ANIT-stimulated inflammatory score at 20 mg/kg, ig administered for 8 days by hematoxylin and eosin staining based mopho-metric analysis; assay type: functional, organism-based
Homo sapiens = species on record: Homo sapiens; assay: Selectivity index, ratio of EC50 of PPARgamma (unknown origin) to EC50 of PPARalpha (unknown origin)
[7] = biological target: PPAR delta/gamma (Homo sapiens) (UniProt P37231+Q03181); assay: Selectivity index, ratio of EC50 of PPARgamma (unknown origin) to EC50 of PPARdelta (unknown origin); assay type: protein assay
[8] = biological target: T4, Peroxisome proliferator-activated receptor delta (Homo sapiens) (UniProt Q03181); assay: Agonist activity at PPARbeta (unknown origin) incubated for 3 to 16 hrs by pathhunter nuclear hormone receptor assay relative to L-165,041
T4 sequence (whole entry): T1 sequence (Q03181 whole entry)

[9] = biological target: T5, Peroxisome proliferator-activated receptor gamma (Homo sapiens) (UniProt P37231); assay: Agonist activity at PPARgamma (unknown origin) incubated for 3 to 16 hrs by pathhunter nuclear hormone receptor assay relative to Troglitazone
T5 sequence (whole entry): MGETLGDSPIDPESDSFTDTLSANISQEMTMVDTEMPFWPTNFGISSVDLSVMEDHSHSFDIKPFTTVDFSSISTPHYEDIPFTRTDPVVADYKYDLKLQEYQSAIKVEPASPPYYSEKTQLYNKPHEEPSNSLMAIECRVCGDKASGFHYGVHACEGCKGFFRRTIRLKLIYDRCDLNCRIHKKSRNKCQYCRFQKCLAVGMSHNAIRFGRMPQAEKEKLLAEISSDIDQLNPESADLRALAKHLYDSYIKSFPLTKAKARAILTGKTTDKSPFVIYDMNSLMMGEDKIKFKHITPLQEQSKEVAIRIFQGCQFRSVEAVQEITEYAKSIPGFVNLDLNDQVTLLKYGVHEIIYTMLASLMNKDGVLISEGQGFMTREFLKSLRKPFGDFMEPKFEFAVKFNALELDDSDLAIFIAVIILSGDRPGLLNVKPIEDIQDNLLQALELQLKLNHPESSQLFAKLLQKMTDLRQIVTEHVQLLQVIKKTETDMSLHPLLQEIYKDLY

[10] = biological target: T2, Peroxisome proliferator-activated receptor alpha (Homo sapiens); assay: Potency index, ratio of EC50 of GFT505 to ratio of EC50 of compound for agonist activity at PPARalpha (unknown origin) incubated for 3 to 16 hrs by pathhunter nuclear hormone receptor assay
[11] = biological target: T6, Peroxisome proliferator-activated receptor gamma (Homo sapiens, UniProt P37231); assay: Agonist activity at PPARgamma (unknown origin) incubated for 3 to 16 hrs by pathhunter nuclear hormone receptor assay
T6 sequence (P37231 whole entry): T5 sequence (whole entry)

Rattus norvegicus [12] = assay: Hepatoprotective activity in Sprague-Dawley rat assessed as reduction in ANIT-stimulated total bilirubin level at 30 mg/kg, ig administered for 8 days by biochemical analysis; assay type: functional, organism-based
Rattus norvegicus [13] = assay: Hepatoprotective activity in Sprague-Dawley rat assessed as reduction in ANIT-stimulated inflammatory score at 30 mg/kg, ig administered for 8 days by hematoxylin and eosin staining based mopho-metric analysis; assay type: functional, organism-based
Rattus norvegicus [14] = assay: Hepatoprotective activity in Sprague-Dawley rat assessed as reduction in ANIT-stimulated fibrosis area at 30 mg/kg, ig administered for 8 days by hematoxylin and eosin staining based mopho-metric analysis; assay type: functional, organism-based

CCCc1c(OCCCOc2ccc(OCC(=O)O)cc2)ccc(C(C)=O)c1O
EC50 [1]: 61 nM

Cc1cc(-c2cc(-c3ccc(Br)cc3)on2)cc(C)c1OC(C)(C)C(=O)O
Activity [2]: 5% | EC50 [3]: > 10000 nM

CC[C@H]1[C@@H](O)[C@@H]2[C@H](CC[C@]3(C)[C@@H]([C@H](C)CCC(=O)O)CC[C@@H]23)[C@@]2(C)CC[C@@H](O)C[C@@H]12
Activity (Rattus norvegicus [4]): inactive | Activity (Rattus norvegicus [5]): Active | Activity (Rattus norvegicus [6]): inactive

Cc1cc(CCc2cc(-c3ccc(Br)cc3)on2)cc(C)c1OC(C)(C)C(=O)O
Activity [2]: 134% | Ratio EC50 (Homo sapiens): 17 | EC50 [1]: 5 nM | Ratio EC50 [7]: 91 | Activity [8]: 73% | Activity [9]: 78% | EC50 [3]: 27 nM | Ratio EC50 [10]: 8 to 28 | EC50 [11]: 457 nM

Cc1cc(Cc2cnoc2-c2ccc(Br)cc2)cc(C)c1OC(C)(C)C(=O)O
Activity [2]: 78% | EC50 [3]: 2820 nM

Cc1cc(Cc2onc3c2CCOc2cc(Br)ccc2-3)cc(C)c1OC(C)(C)C(=O)O
Activity [2]: 85% | EC50 [3]: 3420 nM

Cc1cc(Cc2cc(-c3ccccc3)on2)cc(C)c1OC(C)(C)C(=O)O
Activity [2]: 85% | EC50 [3]: 385 nM

Cc1cc(Cc2noc3c2CCOc2cc(Br)ccc2-3)cc(C)c1OC(C)(C)C(=O)O
Activity [2]: 50% | EC50 [3]: 8970 nM

CSc1ccc(C(=O)/C=C/c2cc(C)c(OC(C)(C)C(=O)O)c(C)c2)cc1 [ELAFIBRANOR]
Activity [2]: 117% | Activity (Rattus norvegicus [12]): Active | Activity (Rattus norvegicus [13]): inactive | Activity (Rattus norvegicus [14]): inactive | Activity [8]: 72% | Activity [9]: 93% | EC50 [3]: 225 nM
